The target in assay [1] is T1, Lysine-specific demethylase 4A (Homo sapiens, UniProt O75164).
T1 sequence (O75164 whole entry): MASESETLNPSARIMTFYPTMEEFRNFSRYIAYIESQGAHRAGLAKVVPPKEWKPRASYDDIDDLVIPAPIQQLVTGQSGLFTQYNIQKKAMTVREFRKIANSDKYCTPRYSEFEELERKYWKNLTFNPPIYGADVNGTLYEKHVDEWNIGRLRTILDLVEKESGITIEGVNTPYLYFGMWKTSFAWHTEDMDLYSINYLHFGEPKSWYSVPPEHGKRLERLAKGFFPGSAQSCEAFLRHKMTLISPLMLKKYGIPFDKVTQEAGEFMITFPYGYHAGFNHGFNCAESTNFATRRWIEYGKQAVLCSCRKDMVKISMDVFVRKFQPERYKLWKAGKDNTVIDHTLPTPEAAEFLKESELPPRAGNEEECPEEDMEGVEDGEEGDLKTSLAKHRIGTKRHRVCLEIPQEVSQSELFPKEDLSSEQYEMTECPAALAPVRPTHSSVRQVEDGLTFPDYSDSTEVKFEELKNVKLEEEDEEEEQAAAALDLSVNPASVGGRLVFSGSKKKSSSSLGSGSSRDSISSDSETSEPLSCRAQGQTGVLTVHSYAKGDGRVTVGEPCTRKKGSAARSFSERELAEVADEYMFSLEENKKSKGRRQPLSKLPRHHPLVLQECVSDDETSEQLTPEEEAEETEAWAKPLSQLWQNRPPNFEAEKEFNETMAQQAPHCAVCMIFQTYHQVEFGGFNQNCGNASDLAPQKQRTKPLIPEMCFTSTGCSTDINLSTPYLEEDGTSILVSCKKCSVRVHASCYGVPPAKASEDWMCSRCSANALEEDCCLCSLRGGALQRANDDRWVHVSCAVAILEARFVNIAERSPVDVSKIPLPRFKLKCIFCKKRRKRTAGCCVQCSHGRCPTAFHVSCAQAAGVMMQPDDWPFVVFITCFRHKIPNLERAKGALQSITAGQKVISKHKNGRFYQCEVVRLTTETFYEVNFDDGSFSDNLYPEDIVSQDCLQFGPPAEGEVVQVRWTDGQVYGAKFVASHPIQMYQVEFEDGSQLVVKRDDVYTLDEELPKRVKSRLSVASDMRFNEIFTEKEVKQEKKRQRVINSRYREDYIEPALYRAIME

In assay [2] the test system is LNCaP. Briefly: Antiproliferative activity against human LNCAP cells assessed as reduction in cell viability by MTT assay. It counts as functional, cell-based.
Assay [3] can be described thus: Antiproliferative activity against human VCaP cells assessed as reduction in cell viability by MTT assay. It counts as functional, cell-based.
Assay [4] concerns the target T2, Lysine-specific demethylase 4C (Homo sapiens, UniProt Q9H3R0).
T2 sequence (Q9H3R0 whole entry): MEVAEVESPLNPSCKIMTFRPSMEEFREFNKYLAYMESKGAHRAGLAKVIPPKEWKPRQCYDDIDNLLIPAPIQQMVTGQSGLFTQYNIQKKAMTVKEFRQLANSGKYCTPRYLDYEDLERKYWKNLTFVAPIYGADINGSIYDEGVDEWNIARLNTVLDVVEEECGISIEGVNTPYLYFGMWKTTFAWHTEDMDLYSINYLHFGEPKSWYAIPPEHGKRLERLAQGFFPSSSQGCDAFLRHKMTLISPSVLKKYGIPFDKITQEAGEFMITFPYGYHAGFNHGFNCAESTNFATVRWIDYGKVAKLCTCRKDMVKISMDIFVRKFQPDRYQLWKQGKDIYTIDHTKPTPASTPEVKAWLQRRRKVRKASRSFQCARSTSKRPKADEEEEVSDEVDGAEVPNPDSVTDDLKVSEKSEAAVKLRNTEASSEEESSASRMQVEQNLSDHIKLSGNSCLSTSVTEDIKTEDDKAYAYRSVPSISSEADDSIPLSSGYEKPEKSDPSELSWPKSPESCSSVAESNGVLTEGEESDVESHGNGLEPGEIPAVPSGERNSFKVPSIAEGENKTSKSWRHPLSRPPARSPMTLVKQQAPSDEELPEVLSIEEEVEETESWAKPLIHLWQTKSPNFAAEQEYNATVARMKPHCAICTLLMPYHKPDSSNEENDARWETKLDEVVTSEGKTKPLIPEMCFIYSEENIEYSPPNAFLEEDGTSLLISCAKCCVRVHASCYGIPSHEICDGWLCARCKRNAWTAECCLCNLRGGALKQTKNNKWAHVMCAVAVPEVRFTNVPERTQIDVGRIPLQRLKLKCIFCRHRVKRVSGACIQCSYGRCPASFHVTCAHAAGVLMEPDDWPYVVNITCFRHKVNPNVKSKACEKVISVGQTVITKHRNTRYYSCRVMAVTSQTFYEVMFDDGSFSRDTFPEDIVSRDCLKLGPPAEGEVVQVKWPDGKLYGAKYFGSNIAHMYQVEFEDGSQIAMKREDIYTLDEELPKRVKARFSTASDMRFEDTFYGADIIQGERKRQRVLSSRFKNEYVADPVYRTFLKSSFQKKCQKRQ
Put plainly: Inhibition of KDM4C (1 to 350 residues) (unknown origin) expressed in Escherichia coli using […] as substrate.

Assay [5] can be described thus: Antiproliferative activity against human PC3 cells assessed as reduction in cell viability by MTT assay. It counts as functional, cell-based. The note with it: PC-3.
Assay [6] addresses T3, Lysine-specific demethylase 5A (Homo sapiens, UniProt P29375).
Assay [7] deals with T4, Lysine-specific demethylase 4B (Homo sapiens, UniProt O94953).
T4 sequence (O94953 whole entry): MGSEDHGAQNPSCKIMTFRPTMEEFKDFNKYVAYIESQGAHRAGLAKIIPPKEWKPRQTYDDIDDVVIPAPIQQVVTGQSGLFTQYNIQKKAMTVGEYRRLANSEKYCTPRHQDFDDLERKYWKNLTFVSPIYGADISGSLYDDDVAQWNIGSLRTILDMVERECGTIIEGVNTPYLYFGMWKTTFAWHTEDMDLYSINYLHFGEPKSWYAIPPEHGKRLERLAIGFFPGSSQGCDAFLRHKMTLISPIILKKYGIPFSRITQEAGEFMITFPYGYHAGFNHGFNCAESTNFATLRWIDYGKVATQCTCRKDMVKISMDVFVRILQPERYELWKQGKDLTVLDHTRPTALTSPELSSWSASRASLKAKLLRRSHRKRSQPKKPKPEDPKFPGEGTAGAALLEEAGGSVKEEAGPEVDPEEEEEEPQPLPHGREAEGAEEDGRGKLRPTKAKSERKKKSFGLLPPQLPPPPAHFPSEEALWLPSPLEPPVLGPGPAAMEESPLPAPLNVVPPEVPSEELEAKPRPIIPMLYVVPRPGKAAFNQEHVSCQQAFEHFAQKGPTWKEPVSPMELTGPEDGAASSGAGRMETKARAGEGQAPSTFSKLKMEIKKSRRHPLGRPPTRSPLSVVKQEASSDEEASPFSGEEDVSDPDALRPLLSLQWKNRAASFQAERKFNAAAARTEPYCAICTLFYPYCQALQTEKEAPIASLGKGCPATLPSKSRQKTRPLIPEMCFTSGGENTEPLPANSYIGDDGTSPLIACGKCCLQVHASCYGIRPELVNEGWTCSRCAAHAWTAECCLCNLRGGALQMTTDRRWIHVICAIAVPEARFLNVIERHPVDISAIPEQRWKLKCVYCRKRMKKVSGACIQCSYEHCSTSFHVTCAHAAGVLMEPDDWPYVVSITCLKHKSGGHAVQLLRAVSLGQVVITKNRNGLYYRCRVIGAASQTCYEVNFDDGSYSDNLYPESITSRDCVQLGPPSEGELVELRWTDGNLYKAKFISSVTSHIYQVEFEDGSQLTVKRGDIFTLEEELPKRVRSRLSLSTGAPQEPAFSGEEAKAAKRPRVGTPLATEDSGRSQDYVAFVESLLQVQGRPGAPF
Briefly: biochemical.

In assay [8] the target is T5, Lysine-specific demethylase 2A (Homo sapiens, UniProt Q9Y2K7).
T5 sequence (Q9Y2K7 whole entry): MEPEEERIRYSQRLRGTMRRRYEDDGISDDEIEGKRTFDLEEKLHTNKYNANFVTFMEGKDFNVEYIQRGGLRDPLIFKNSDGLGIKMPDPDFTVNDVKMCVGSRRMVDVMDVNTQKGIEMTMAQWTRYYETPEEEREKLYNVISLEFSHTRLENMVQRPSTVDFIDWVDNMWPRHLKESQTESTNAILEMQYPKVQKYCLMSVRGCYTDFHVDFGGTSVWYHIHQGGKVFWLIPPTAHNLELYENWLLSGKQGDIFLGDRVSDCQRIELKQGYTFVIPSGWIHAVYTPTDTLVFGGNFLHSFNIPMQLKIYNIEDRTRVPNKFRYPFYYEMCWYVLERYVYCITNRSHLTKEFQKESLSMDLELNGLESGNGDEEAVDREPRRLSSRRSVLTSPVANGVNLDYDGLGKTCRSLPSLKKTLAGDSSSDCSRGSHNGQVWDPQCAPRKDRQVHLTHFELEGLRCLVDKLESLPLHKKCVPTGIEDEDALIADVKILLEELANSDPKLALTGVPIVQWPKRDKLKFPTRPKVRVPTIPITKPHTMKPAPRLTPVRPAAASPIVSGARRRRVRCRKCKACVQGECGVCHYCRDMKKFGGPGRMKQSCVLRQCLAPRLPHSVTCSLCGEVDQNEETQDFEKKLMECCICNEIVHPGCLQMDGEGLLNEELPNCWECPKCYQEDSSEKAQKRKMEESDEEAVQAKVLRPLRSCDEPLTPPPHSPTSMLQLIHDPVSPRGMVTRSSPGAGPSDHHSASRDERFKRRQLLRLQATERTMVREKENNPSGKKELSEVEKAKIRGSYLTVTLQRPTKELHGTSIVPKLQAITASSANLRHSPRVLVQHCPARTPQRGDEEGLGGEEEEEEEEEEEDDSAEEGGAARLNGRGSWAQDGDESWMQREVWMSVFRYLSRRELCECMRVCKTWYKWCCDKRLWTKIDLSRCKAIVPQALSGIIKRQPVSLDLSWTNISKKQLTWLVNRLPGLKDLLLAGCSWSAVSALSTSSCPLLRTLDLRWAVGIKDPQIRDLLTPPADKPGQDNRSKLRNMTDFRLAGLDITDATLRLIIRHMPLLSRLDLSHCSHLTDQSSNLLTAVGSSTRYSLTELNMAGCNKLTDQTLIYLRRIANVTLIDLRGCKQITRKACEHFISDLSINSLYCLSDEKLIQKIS
Put plainly: Inhibition of KDM2A in human MIAPaCa2 cells assessed as increase in H3K36me2 level after 48 hrs by Hoechst 33258 staining based immunofluorescence assay. In kind it is cell-based, MIA PaCa-2.

A short description of assay [9]: Growth inhibition of human MIAPaCa2 cells after 48 hrs by CellTiter-Glo assay. It counts as functional. The conditions noted are these: MIA PaCa-2, 48 h.
Assay [10] has as its target T1, Lysine-specific demethylase 4A. Briefly: biochemical.
Assay [11] addresses T5, Lysine-specific demethylase 2A. Put plainly: Competitive inhibition of recombinant His6-tagged KDM2A (1 to 517 residues) (unknown origin) expressed in Escherichia coli BL21 cells using methylstat as substrate preincubated for 30 mins followed by substrate addition measured after 4 hrs by fluorescence polarization assay.
For assay [12], the target named is T1, Lysine-specific demethylase 4A. The source holds these as a separate data set.
Assay [13] shares this target. The source holds these as a separate data set.
The target of assay [14] is Lysine-specific demethylase 6B (Homo sapiens, UniProt O15054). Briefly: Inhibition of human C-terminal FLAG-tagged KDM6B (1043 residues) expressed in baculovirus infected sf9 cells using H3K27me3 (21 to 44 residues) substrate preincubated for 10 mins followed by substrate addition measured after 45 mins by TR-FRET assay.
Chain of Lysine-specific demethylase 6B (O15054 whole entry, the tested form may be a part): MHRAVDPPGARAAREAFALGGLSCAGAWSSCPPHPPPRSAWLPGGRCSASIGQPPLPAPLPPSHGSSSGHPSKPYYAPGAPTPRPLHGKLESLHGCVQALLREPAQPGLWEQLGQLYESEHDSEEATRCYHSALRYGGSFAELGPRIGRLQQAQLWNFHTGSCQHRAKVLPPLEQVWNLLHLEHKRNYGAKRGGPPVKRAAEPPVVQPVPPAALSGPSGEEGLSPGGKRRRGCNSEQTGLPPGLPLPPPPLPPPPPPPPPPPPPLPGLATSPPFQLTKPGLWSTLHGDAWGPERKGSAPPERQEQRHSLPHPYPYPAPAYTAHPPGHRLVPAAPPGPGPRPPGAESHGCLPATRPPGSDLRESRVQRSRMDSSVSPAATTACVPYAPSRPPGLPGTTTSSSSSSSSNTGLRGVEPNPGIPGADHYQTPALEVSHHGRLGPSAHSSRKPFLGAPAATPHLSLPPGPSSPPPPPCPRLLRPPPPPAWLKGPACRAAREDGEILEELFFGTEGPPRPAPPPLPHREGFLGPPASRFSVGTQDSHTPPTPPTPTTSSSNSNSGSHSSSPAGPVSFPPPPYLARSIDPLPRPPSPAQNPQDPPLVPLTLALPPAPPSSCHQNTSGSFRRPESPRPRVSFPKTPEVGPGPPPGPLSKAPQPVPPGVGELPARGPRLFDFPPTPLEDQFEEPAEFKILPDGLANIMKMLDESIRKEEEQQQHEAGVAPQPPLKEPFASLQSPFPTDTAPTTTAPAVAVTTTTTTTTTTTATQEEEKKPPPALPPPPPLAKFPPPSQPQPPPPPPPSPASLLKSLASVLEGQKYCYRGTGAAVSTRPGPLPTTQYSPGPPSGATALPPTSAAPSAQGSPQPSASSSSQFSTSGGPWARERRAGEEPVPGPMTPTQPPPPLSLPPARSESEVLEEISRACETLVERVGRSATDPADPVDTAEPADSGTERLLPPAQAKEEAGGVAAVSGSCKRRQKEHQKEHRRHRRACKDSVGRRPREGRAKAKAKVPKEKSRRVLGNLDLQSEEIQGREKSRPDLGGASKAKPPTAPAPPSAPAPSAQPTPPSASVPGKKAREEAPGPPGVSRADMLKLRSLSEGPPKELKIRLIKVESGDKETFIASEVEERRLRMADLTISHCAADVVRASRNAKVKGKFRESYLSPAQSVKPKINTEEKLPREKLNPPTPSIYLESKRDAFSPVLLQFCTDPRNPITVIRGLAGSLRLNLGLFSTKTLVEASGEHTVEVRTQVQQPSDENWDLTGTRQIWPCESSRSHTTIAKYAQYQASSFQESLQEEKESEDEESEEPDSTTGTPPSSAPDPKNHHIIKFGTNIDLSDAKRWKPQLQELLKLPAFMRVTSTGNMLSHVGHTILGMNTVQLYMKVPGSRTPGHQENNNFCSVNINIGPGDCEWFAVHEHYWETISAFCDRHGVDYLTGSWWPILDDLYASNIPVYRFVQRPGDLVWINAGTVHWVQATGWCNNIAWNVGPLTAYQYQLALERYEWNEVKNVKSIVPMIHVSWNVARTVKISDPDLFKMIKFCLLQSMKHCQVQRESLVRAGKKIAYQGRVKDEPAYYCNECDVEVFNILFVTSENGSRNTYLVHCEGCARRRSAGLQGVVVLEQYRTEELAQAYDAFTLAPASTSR
For assay [15], the target named is T3, Lysine-specific demethylase 5A. Set-up: species or system Sf9.
Assay [16] has as its target T1, Lysine-specific demethylase 4A. The source holds these as a separate data set.
The target of assay [17] is T3, Lysine-specific demethylase 5A. The source holds these as a separate data set.

T3 sequence (P29375 whole entry): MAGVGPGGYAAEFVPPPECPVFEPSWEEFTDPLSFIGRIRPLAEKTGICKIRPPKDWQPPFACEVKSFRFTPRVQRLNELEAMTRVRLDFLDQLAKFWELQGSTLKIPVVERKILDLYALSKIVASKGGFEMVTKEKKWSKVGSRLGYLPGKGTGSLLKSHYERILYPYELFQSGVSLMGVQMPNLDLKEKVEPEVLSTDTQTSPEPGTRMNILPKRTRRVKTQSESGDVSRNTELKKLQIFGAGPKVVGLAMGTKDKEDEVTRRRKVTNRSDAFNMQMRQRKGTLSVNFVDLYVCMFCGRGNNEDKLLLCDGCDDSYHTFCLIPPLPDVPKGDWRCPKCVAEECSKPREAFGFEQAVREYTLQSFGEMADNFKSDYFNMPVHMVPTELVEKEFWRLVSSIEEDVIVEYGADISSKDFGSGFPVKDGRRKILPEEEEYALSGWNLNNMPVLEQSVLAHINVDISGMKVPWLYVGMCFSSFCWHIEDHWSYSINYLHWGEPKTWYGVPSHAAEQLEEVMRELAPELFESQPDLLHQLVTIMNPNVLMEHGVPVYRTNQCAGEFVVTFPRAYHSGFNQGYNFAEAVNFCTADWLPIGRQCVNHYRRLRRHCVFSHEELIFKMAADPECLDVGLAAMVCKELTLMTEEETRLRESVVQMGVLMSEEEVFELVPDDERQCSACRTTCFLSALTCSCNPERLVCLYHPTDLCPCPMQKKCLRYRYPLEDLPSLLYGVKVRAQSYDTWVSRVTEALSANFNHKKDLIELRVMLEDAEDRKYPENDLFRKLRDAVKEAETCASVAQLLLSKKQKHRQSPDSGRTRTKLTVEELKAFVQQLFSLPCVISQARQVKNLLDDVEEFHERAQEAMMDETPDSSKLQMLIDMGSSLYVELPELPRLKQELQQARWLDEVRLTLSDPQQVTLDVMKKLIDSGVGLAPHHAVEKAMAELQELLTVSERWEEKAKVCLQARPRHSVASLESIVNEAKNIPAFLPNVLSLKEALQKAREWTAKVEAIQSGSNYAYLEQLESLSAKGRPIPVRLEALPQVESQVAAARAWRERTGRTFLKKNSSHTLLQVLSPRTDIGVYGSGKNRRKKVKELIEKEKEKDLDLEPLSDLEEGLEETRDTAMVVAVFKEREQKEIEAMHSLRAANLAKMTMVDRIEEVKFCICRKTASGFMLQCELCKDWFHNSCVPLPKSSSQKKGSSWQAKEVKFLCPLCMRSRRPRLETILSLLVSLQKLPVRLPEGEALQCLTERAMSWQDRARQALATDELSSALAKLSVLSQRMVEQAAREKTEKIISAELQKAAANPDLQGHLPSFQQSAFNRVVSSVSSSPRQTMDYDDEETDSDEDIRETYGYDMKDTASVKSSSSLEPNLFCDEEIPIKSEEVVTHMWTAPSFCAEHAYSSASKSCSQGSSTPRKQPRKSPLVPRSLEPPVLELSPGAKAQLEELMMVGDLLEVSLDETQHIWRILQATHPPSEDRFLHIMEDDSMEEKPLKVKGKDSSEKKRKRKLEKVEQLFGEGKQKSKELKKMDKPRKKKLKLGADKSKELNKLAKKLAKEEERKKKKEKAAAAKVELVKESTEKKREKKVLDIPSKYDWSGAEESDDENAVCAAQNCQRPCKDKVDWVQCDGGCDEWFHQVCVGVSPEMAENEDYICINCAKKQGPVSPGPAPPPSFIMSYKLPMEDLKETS

As for `O=C(NCCCc1ccccc1)c1cccc(-c2cc(O)c3ncccc3c2)c1`, the IC50 is below 1000 nM in assay [1]; below 1000 nM in assay [2]; below 1000 nM in assay [3]; below 1000 nM in assay [4]; 40 nM in assay [5]; above 10000 nM in assay [6]. In [7], this compound returned an IC50 of 10 nM.

As to `CCCCCC[n+]1ccc(/C=C/c2ccc(N(C)C)cc2)cc1`, the half-maximal effective concentration (EC50) in assay [8] was 280 nM. The GI50 in assay [9] came to 71 nM. Also, the inhibition constant Ki is 420 nM in assay [10] and 280 nM in assay [11].

Consider `NNC(=O)Cc1nnn[nH]1`, for which the IC50 in assay [12] was 2400 nM; in assay [14] it was 98000 nM; in assay [15] it was 10400 nM; in assay [16], 46600 nM. In [13], affinity was put at a Ki of 1940 nM.

Take `CCCCc1oc2ccccc2c1C(=O)c1cc(I)c(OCCCC[N+](C)(C)C)c(I)c1`: inhibition in assay [17] was half-maximal at 41000 nM (IC50).
